Laboratory results reported in patent US10774083B2, “Heterocyclic amide compound” (TAKEDA PHARMACEUTICAL COMPANY LIMITED, priority 2016, dated 2020).

Experiments:
[1] = biological target: T1, human PRS protein (His-Avi-hEPRS (998-1512)) (Homo sapiens, UniProt P07814); assay: PRS inhibitory activity ([32P]pyrophosphate exchange enzyme assay); assay type: biochemical; conditions: 300 nM test compound; read-out: inhibitory rate (%) of PRS
T1 construct: to construct His-Avi-hEPRS (998-1512) expression plasmid; His tag (N); Avi tag (N); TEV cleavage site (ENLYFQG, then S; inferred from the forward primer hEPRS-TEV-NheF) (N); made in house; host or cells: E. coli BL21(DE3)
T1 sequence (P07814 998-1512 limits assumed): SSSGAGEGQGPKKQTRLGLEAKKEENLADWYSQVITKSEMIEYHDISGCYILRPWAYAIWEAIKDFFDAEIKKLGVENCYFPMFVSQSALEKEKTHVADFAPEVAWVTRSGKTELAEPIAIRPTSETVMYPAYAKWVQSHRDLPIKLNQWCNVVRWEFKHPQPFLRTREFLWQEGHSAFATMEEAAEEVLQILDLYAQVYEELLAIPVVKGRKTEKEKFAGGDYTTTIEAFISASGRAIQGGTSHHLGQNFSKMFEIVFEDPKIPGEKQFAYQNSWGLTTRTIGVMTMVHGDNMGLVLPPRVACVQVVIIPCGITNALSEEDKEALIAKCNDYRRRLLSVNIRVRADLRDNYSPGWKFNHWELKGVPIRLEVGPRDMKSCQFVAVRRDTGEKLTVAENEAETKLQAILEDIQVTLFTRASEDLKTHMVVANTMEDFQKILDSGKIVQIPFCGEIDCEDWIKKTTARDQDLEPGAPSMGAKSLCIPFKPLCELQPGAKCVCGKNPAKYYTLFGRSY
Experimental: The PRS inhibitory activity of the compounds of the present invention was evaluated by the following method.
An expression plasmid of Catalytic Domain of human EPRS was obtained by PCR using human skeletal muscle cDNA Library (Takara Bio Inc.) as a template and 2 kinds of Primers 5′-[…]-3′ (hEPRS-TEV-NheF) (SEQ ID NO: 1) and 5′-[…]-3′ (hEPRS-St-Not-R) (SEQ ID NO: 2). PCR was performed using PrimeStar GXL DNA Polymerase (Takara Bio Inc.) and included (1) 98° C., 1 min, (2) 35 cycles of 98° C., 10 sec, 65° C., 10 sec, 72° C., 1 min, and (3) reaction at 72° C., 1 min. This was cleaved with Nhe I and Not I (Takara Bio Inc.) and inserted using Ligation High (TOYOBO CO., LTD.) into the Nhe I/Not I site of pET21a (Novagen) with His-Avitag inserted thereinto. This was introduced into ECOS JM109 (NIPPON GENE CO., LTD.) to construct His-Avi-hEPRS (998-1512) expression plasmid.
Recombinant human PRS protein was prepared by transforming the His-Avi-hEPRS (998-1512) expression plasmid prepared above into ECOS Competent E. coli BL21(DE3) (NIPPON GENE CO., LTD.). Escherichia coli obtained by transformation was inoculated into 300 mL of LB medium (1% peptone, 0.5% yeast extract, 0.5% sodium chloride, 0.01% ampicillin) and cultured at 30° C. for 16 hr. The obtained culture medium was transferred into a jar culture tank charged with 6 L of the main fermentation medium (0.3% potassium dihydrogen phosphate, 0.6% disodium hydrogen phosphate, 0.1% ammonium chloride, 0.05% sodium chloride, 0.024% magnesium sulfate, 0.02% NEWPOL LB-625, 1.5% sorbitol, 1.5% casamino acid, 0.5% yeast extract, 0.01% ampicillin) and culturing was started at 37° C., quantity of airflow 5 L/min, stirring rotating speed 400 rpm. At the time point when the turbidity of the culture medium reached about 550 Klett units, the culture temperature was lowered to 16° C., isopropyl-β-D-thiogalactopyranoside (IPTG) was added to the final concentration 0.1 mM, and culturing was performed for another 16 hr to induce expression of human PRS. After completion of culturing, the culture medium was centrifuged at 5,000 rpm for 10 min. The obtained human PRS expressing Escherichia coli was suspended in a buffer containing 50 mM Tris-HCl (pH 8.0), 150 mM NaCl, 1 mM DTT, 5 U/ml Benzonase, 20 mM Imidazole and sonicated using Sonifier (BRANSON). The homogenate was centrifuged (33,000×G, 60 min, Beckman Coulter), the obtained supernatant was subjected to adsorption by passage through Ni-NTA Superflow (QIAGEN) column equilibrated in advance with 50 mM Tris-HCl (pH 8.0), 300 mM NaCl, 1 mM DTT, and elution was performed with a buffer containing 50 mM Tris-HCl (pH 8.0), 300 mM NaCl, 1 mM DTT, 250 mM Imidazole. Furthermore, gel filtration was performed using Superdex200 pg column equilibrated in advance with a buffer containing 50 mM Tris-HCl (pH 8.0), 150 mM NaCl, 1 mM DTT, 10% glycerol to give purified human PRS protein. The protein concentration was measured using BCA Protein Assay Kit (PIERCE) and BSA as the standard.
A test compound was dissolved in 5 μL of an assay buffer (50 mM Tris-HCl (pH 7.5), 20 mM KCl, 1 mM DTT, 0.01% Tween 20) and incubated for 60 min with 5 μL of 40 nM human PRS protein dissolved in the assay buffer containing 40 mM MgCl2. An enzyme reaction of the human PRS protein was started by adding 10 μL of a substrate solution containing 300 μM ATP, 160 μM L-Proline, 400 μM pyrophosphate, [^32P]pyrophosphate (PerkinElmer) prepared to 1 MBq/mL. After incubation at room temperature for 30 min, the reaction was discontinued by adding 50 μL of discontinuation/washing solution (1M HCl, 200 mM sodium pyrophosphate) to the reaction mixture. The reaction solution was transferred to a filter plate (Merck Millipore, Billerica, Mass.) previously added with 200 μL of charcoal solution (0.5% HCl solution containing 10% charcoal (w/v)). […]

[2] = test system: human ovarian cancer cells A2780; assay: proliferation inhibitory activity against human ovarian cancer cell A2780 (CellTiter-Glo); assay type: cell-based; conditions: A2780, 72 h, 1 μM test compound, 3 days of culture, read-out: proliferation inhibitory rate (%) of A2780 cells
Experimental: The proliferation inhibitory activity of the compound of the present invention against human ovarian cancer cell A2780 was evaluated by the following method.
Human ovarian cancer cells A2780 were seeded in a 384 well culture plate at 1000 cells in 30 μL of medium per well by using RPMI-1640 medium (Wako Pure Chemical Industries, Ltd.) containing 10% fetal bovine serum and penicillin/streptomycin. The next day, 10 μL of RPMI-1640 medium containing the test compound was added to the cells. After 3 days of culture, 20 μL of CellTiter-Glo Luminescent Cell Viability Assay solution (Promega) was added. The luminescence signal was measured using EnVision (PerkinElmer) and the inhibitory rate (%) of the test compound was calculated with a well free of seeding of cell as 100% inhibition.

Row | SMILES | inhibition at 0.3 µM [1] | inhibition at 1 µM [2]
1 | O=C(NCc1ccccc1Cl)c1ncnc2nc(C3CCCC3)[nH]c12 [Example 1, N-(2-chlorobenzyl)-8-cyclopentyl-7H-purine-6-carboxamide] | 98% | 60%
2 | Cn1cc(-c2cc(F)cc(CNC(=O)c3ncnc4nc(C5CCCC5)[nH]c34)c2)cn1 [Example 2, 8-cyclopentyl-N-(3-fluoro-5-(1-methyl-1H-pyrazol-4-yl)benzyl)-7H-purine-6-carboxamide] | 101% | 97%
3 | Cn1cc(-c2cc(F)cc(CNC(=O)c3ncnc4nc(C5CCCC5)n(C)c34)c2)cn1 [Example 3, 8-cyclopentyl-N-(3-fluoro-5-(1-methyl-1H-pyrazol-4-yl)benzyl)-7-methyl-7H-purine-6-carboxamide] | 101% | 99%
4 | Cn1cc(-c2cc(F)cc(CNC(=O)c3ncnc4nc(C5CCCC5)n(C)c34)c2)ccc1=O [Example 4, 8-cyclopentyl-N-(3-fluoro-5-(1-methyl-6-oxo-1,6-dihydropyridin-3-yl)benzyl)-7-methyl-7H-purine-6-carboxamide] | 101% | 99%
5 | Cn1cc(-c2cc(F)c(F)c(CNC(=O)c3ncnc4nc(C5CCCC5)n(C)c34)c2)cn1 [Example 5, 8-cyclopentyl-N-(2,3-difluoro-5-(1-methyl-1H-pyrazol-4-yl)benzyl)-7-methyl-7H-purine-6-carboxamide] | 102% | 98%
6 | Cc1cc(N2OCC(C)(C)C2=O)cc(C(=O)NCc2cc(F)cc(-c3cnn(C)c3)c2)n1 [Example 179, 4-(4,4-dimethyl-3-oxo-1,2-oxazolidin-2-yl)-N-(3-fluoro-5-(1-methyl-1H-pyrazol-4-yl)benzyl)-6-methylpyridine-2-carboxamide] | 93% | –
7 | Cc1cc(N2CC[C@@](C#N)(C3CC3)C2=O)cc(C(=O)NCc2cc(F)cc(-c3cncnc3)c2)n1 [Example 205, 4-((3S)-3-cyano-3-cyclopropyl-2-oxopyrrolidin-1-yl)-N-(3-fluoro-5-(pyrimidin-5-yl)benzyl)-6-methylpyridine-2-carboxamide] | 86% | –
8 | Cc1cc(N2CC[C@@](C#N)(C3CC3)C2=O)cc(C(=O)NCc2cc(-c3cnn(C)c3)cc(C(F)(F)F)c2)n1 [Example 218, 4-((3S)-3-cyano-3-cyclopropyl-2-oxopyrrolidin-1-yl)-6-methyl-N-(3-(1-methyl-1H-pyrazol-4-yl)-5-(trifluoromethyl)benzyl)pyridine-2-carboxamide] | 83% | –
9 | CCc1cc(N2CC[C@@](C#N)(C3CC3)C2=O)cc(C(=O)NCc2cc(F)cc(-c3cnn(C)c3)c2)n1 [Example 219, 4-((3S)-3-cyano-3-cyclopropyl-2-oxopyrrolidin-1-yl)-6-ethyl-N-(3-fluoro-5-(1-methyl-1H-pyrazol-4-yl)benzyl)pyridine-2-carboxamide] | 94% | –
10 | COc1cc(N2CC[C@@](C#N)(C3CC3)C2=O)cc(C(=O)NCc2cc(F)cc(-c3cnn(C)c3)c2)n1 [Example 224, 4-((3S)-3-cyano-3-cyclopropyl-2-oxopyrrolidin-1-yl)-N-(3-fluoro-5-(1-methyl-1H-pyrazol-4-yl)benzyl)-6-methoxypyridine-2-carboxamide] | 74% | –
11 | Cn1cc(-c2cc(F)cc(CNC(=O)c3cc(N4CC[C@@](C#N)(C5CC5)C4=O)cc(C4CC4)n3)c2)cn1 [Example 225, 4-((3S)-3-cyano-3-cyclopropyl-2-oxopyrrolidin-1-yl)-6-cyclopropyl-N-(3-fluoro-5-(1-methyl-1H-pyrazol-4-yl)benzyl)pyridine-2-carboxamide] | 66% | –
12 | Cc1cc(N2CCN(C(C)C)C2=O)cc(C(=O)NCc2cc(F)cc(-c3cnn(C)c3)c2)n1 [Example 226, N-(3-fluoro-5-(1-methyl-1H-pyrazol-4-yl)benzyl)-4-(3-isopropyl-2-oxoimidazolidin-1-yl)-6-methylpyridine-2-carboxamide] | 91% | –
13 | Cc1cc(N2CCC(C#N)(CC3CC3)C2=O)cc(C(=O)NCc2cc(F)cc(-c3cnn(C)c3)c2)n1 (stereo not drawn) [Example 230, 4-(3-cyano-3-(cyclopropylmethyl)-2-oxopyrrolidin-1-yl)-N-(3-fluoro-5-(1-methyl-1H-pyrazol-4-yl)benzyl)-6-methylpyridine-2-carboxamide] | 91% | –
14 | Cc1cc(N2CCC(C3CC3)C2=O)cc(C(=O)NCc2cc(F)cc(-c3cnn(C)c3)c2)n1 (stereo not drawn) [Example 234, 4-(3-cyclopropyl-2-oxopyrrolidin-1-yl)-N-(3-fluoro-5-(1-methyl-1H-pyrazol-4-yl)benzyl)-6-methylpyridine-2-carboxamide] | 87% | –
15 | Cc1cc(N2CCC(CO)(C3CC3)C2=O)cc(C(=O)NCc2cc(F)cc(-c3cnn(C)c3)c2)n1 (stereo not drawn) [Example 235, 4-(3-cyclopropyl-3-(hydroxymethyl)-2-oxopyrrolidin-1-yl)-N-(3-fluoro-5-(1-methyl-1H-pyrazol-4-yl)benzyl)-6-methylpyridine-2-carboxamide] | 69% | –
16 | Cc1nc(C(=O)NCc2cc(F)cc(-c3cnn(C)c3)c2)cc(N2CC[C@@](C#N)(C3CC3)C2=O)n1 [Example 237, 6-((3S)-3-cyano-3-cyclopropyl-2-oxopyrrolidin-1-yl)-N-(3-fluoro-5-(1-methyl-1H-pyrazol-4-yl)benzyl)-2-methylpyrimidine-4-carboxamide] | 74% | –
